Patent US20090175845A1, “METHODS FOR IDENTIFYING COMPOUNDS THAT MODULATE PHB DOMAIN PROTEIN ACTIVITY AND COMPOSITIONS THEREOF” (THE TRUSTEES OF COLUMBIA UNIVERSITY IN THE CITY OF NEW YORK, priority 2005, published 2009)

Molecular target: T1, MEC-2 (Caenorhabditis elegans, UniProt Q27433)
T1 construct: expressed in transfected cells; host or cells: HEK 293T
T1 sequence (Q27433 1-481): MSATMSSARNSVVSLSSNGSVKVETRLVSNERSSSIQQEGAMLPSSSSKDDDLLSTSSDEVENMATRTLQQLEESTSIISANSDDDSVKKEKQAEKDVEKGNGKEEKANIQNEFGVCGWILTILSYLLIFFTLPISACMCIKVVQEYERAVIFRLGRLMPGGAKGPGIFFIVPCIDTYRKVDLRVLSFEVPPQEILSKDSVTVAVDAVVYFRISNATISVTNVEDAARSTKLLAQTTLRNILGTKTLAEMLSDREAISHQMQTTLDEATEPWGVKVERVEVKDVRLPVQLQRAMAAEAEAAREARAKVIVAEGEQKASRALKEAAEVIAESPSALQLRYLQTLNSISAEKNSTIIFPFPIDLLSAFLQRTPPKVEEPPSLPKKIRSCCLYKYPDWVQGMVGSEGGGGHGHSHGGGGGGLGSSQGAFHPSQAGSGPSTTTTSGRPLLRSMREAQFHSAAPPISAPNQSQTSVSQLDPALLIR
Assay: Photoaffinity labeling with photoactivatable lipids in HEK 293T cells
Assay type: binding, C. elegans
Details: MEC-2 expressed in HEK 293T cells, 16 hours, UV irradiation, autoradiography
Procedure: Photoaffinity labeling. Experiments were performed as described infra. For labeling with [3H]photocholesterol or [3H]photophosphatidylcholine, cells were supplemented with delipidized FCS and [3H]photocholesterol-MBCD complex or 10-azi-stearate and [3H]choline were added. After 16 hours, cells were washed three times with Ca/Mg-PBS (PBS containing 0.1 mM CaCl2 and 1 mM MgCl2) and irradiated for 30 minutes in Ca/Mg-PBS with a 100 W mercury lamp. For further analysis, cells were lysed on ice for 1 h in lysis buffer (50 mM Tris-HCl pH 7.4, 140 mM NaCl, 5 mM EDTA, 0.5 mM phenylmethylsulfonyl fluoride (PMSF), 1% Triton® X-100, 0.5% deoxycholate). The lysate was centrifuged for eight minutes at 10,000×g, and the supernatant was subjected to immunoprecipitation using an anti-FLAG monoclonal antibody. Aliquots of the starting extract, the supernatants after immunoprecipitation and the immunoprecipitates were separated by SDS-PAGE (12%) followed by blotting of the proteins on PVDF membrane. Radioactivity was detected by phosphoimaging (Fujifilm BAS-2500, Fuji Photo Film Co., Ltd, Japan) using a Tritium-sensitive BAS-TR2025 imaging plate (Fuji Photo Film Co., Ltd, Japan). From the same membrane, an immunoblot was performed using anti-FLAG antibodies.
Cell Culture Studies. Most cell studies used HEK 293T cells that were grown in DMEM as described [Huber et al. (2001) J. Biol. Chem. 18:18]. […]

CC(C)CCC[C@@H](C)[C@H]1CC[C@H]2[C@@H]3CC=C4C[C@@H](O)CC[C@]4(C)[C@H]3CC[C@]12C [cholesterol]
binding of photoactivatable lipid to MEC-2: bound
